Data on 15 molecules can be found in patent publication US9546362B2 (priority 2011, dated 2017).

Data set [1] deals with T1, CsHCS2 (Cannabis sativa, UniProt A0A7J6I5X8).
Experimental: The reactions were incubated for 10 min at 40° C., terminated with 2 μL of 1 N HCl and stored on ice until analysis.
The reaction mixtures were diluted 1:100 with water and subsequently separated using a Waters Acquity UPLC system fitted with an Acquity UPLC BEH C18 column (1.7 μm particle size, 2.1×50 mm column), and analyzed by MS/MS using a Micromass Quattro Ultima triple-quadrupole mass spectrometer. The solvent system used was buffer A: 5 mM TEA and 3 mM acetic acid in water, and buffer B: 5 mM TEA and 3 mM acetic acid in 95:5 methanol:water. The mass spectrometer settings were: ESI positive mode, collision energy 27 V, cone 135 V, scanning for 866>359 transitions.
The target of data set [2] is T1, CsHCS2. Nature of the data set: Carboxylic acid substrate range, luciferin/luciferase measurement of unconsumed ATP. Conditions: CsHCS2, 500 μM carboxylic acid, 50 μM ATP, 3 h at 29° C., FIG. 3B. Type of data set: biochemical. Here is the method: (§1) To test the range of carboxylic acids that CsHCS1 and CsHCS2 can activate, enzyme assays were performed with a broad range of carboxylic acids and limiting ATP. The assay conditions used were similar to Schneider K et al. (2005). A new type of peroxisomal acyl-coenzyme A synthetase from Arabidopsis thaliana has the catalytic capacity to activate biosynthetic precursors of jasmonic acid. The Journal of Biological Chemistry, 280:13962-72. […] All carboxylic acid substrates were dissolved in 2% v/v Triton™ X-100, leading to a final concentration 0.05% Triton X-100 in the assay. After reacting for 3 h at 29° C., 10 μL aliquots of the reactions were transferred to 96-well plates for a luciferin/luciferase based measurement of unconsumed ATP. The plates were analyzed with a 1420 Multilabel counter (PerkinElmer). To each well, 90 μL of a solution containing 100 mM Tris pH 7.8, 1 mM MgCl2, 2.3 μg luciferin, and 0.5 μg of luciferase was injected, and after shaking for 2 seconds the luminescence was measured for 15 seconds without a filter in place. Lower readings, compared to the reactions with no carboxylic acid substrate, indicate a higher amount of enzymatic activity and therefore substrate utilization. The results are shown in FIG. 3, wherein error bars represent the percent error of the ratio, n=3.

In data set [3] the test system is olivetolic acid synthesis. In words: Coupled enzymatic assay for olivetolic acid synthesis (CsHCS2, MCS, olivetol synthase/PKS, OAS). It is filed as biochemical, Cannabis sativa. Conditions: 0.3 μg CsHCS2, 4 mM hexanoate, room temperature, 16 h, FIG. 4. How it is done: Eluted compounds were detected by absorbance at 263 nm and identified both by having the same retention times as isolated standards, and by their mass using a single quadrapole mass detector. […] HTAL=hexanoyltriacetic lactone, PDAL=pentyldiacetic lactone, OA=olivetolic acid, OL=olivetol.
The reaction was incubated at room temperature for 16 h, acidified and extracted in ethyl acetate. The polar fraction was recovered, evaporated to dryness and resuspended in 50 μL of methanol. An aliquot (5 μL) was analyzed by LCMS, and products were identified by their retention times and masses (see FIG. 4).

Data set [4] concerns the target T1, CsHCS2. In words: Kinetic properties, separate experiment (Table 5). It is filed as biochemical.
For data set [5], the target named is T2, CsHCS1 (Cannabis sativa, UniProt H9A1V3, DEL715-715). In words: biochemical.
In data set [6] the target is T2, CsHCS1. In words: Hexanoyl-CoA synthetase activity (LC-MS/MS). Further details: His8 (pHIS8/GW vector) (N); made in house; host or cells: E. coli Rosetta 2. Type of data set: biochemical.
Data set [7] addresses T2, CsHCS1. The note with it: CsHCS1, Table 5.
Data set [8] deals with CC(C)(COP(=O)(O)OP(=O)(O)OC[C@H]1O[C@@H](n2cnc3c(N)ncnc32)[C@H](O)[C@@H]1OP(=O)(O)O)[C@@H](O)C(=O)NCCC(=O)NCCS. Nature of the data set: purified protein, by the assay type.
The subject of data set [9] is CCCCCC(=O)O. In words: purified protein, by the assay type. Conditions: other: CsHCS1, substrate hexanoate; pH 9.0; 40.0 °C. Type of data set: biochemical, Cannabis sativa.
Data set [10] relates to CCCCCC(=O)O. Nature of the data set: purified protein, by the assay type. The note with it: other: CsHCS1, Table 5.
In a further data set the test system is CCCCCCCCCC(=O)O. In words: purified protein, by the assay type. Conditions: other: CsHCS1, Table 5.
The target of data set [11] is T2, CsHCS1. In words: Carboxylic acid substrate range, luciferin/luciferase measurement of unconsumed ATP. It is filed as biochemical. Further details: His8 (pHIS8/GW vector) (N); made in house; host or cells: E. coli Rosetta 2. The note with it: CsHCS1, 500 μM carboxylic acid, 50 μM ATP, 3 h at 29° C., FIG. 3A. Here is the method: as §1

Where two headings read alike, the source gives them in different places. Where only a bound is given, the exact number is not on record here.

T1 sequence (A0A7J6I5X8 entry or part of it): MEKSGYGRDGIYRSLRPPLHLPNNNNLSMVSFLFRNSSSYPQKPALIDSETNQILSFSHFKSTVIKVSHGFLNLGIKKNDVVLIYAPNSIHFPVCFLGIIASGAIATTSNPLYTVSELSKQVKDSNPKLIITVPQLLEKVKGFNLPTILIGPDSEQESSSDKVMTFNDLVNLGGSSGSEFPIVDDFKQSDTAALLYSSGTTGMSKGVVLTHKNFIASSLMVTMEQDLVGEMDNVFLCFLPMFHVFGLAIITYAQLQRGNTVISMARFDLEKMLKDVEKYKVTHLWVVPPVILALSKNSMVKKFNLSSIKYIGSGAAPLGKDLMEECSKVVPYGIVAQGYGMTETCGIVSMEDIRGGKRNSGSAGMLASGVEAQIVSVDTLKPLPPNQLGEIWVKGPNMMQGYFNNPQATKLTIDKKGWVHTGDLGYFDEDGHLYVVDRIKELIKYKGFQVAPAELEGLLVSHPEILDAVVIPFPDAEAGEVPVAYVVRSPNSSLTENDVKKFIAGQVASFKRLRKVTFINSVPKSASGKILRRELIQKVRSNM

For the molecule `[Ca+2]` [Ca^2+], on CsHCS2 [1], the “activity with divalent cation” value was “to a lesser extent”.

In the case of `O=C(O)/C=C/c1ccc(O)cc1` [p-coumarate], the utilization as substrate result at CsHCS2 [2] is recorded as “to a lesser extent”.

Consider “CsHCS2: Cannabis sativa hexanoyl-CoA synthetase 2, alkanoyl-CoA synthetase, SEQ ID NO: 4”, for which the “supply of hexanoyl-CoA for olivetolic acid synthesis” value in [3] is listed as “capable of providing sufficient hexanoyl-CoA substrate for the synthesis of olivetolic acid”. In the data set with CsHCS2 [1], this molecule returned a pH optimum of 9 and a temperature optimum of 40 °C.

Regarding `CC(C)(COP(=O)(O)OP(=O)(O)OC[C@H]1O[C@@H](n2cnc3c(N)ncnc32)[C@H](O)[C@@H]1OP(=O)(O)O)[C@@H](O)C(=O)NCCC(=O)NCCS` [CoA, coenzyme A], the “inhibition of CsHCS2” value on CsHCS2 [4] is “did not inhibit”. The Ki – broadly, the equilibrium dissociation constant of an inhibitor or competing ligand from its target – at CsHCS1 [5] came to 5100 ± 1800 µM.

With `[Co+2]` [Co^2+], at CsHCS2 [1], the “activity with divalent cation” value is recorded as “highest”.

Turning to `[Mn+2]` [Mn^2+], the “activity with divalent cation” value on CsHCS2 [1] was “high”.

On to `[Mg+2]` [Mg^2+], for which the “activity with divalent cation” value at CsHCS2 [1] was “high”. For the same molecule, the “use of divalent cation” value at CsHCS1 [6] (CsHCS1, range of divalent cations tested) was “optimally used”.

`CCCC(=O)O` [butanoate]: the Km at CsHCS2 [4] (read-out: Km) and on CsHCS1 [7] was above 10 mM throughout.

For the molecule CsHCS2 (Cannabis sativa), in data set [8] (other: CsHCS2, Table 5), the Km was 0.16 ± 0.01 μM μM.

As to CsHCS1 (Cannabis sativa; DEL715-715), the Km worked out at 6.1 ± 1.0 mM in the data set with CCCCCC(=O)O [9]; 0.26 ± 0.05 μM μM in data set [8] (other: CsHCS1, Table 5); 3.7 ± 0.7 mM mM in the data set on CCCCCC(=O)O [10]; 1.7 ± 0.2 mM mM in the data set with CCCCCCCCCC(=O)O. Further, in the data set with CCCCCC(=O)O [9], the Vmax is listed as 15.6±1.7 pKat. Moreover, in the data set with CCCCCC(=O)O [9], the kcat (usually the maximal rate divided by the concentration of active sites) stood at 4.5 s⁻¹.

Regarding `CCCCCCCCCC(=O)O` [decanoate], the Ki at CsHCS2 [4] was found to be 121 ± 47.9 µM. Also, on CsHCS2 [4] (CsHCS2, Table 5), the Km is 0.0161 ± 0.0058 mM.

For the molecule `CCCCCCCC(=O)O` [octanoate], the utilization as substrate result on CsHCS1 [11] was “utilize”.

As for `CCCCC(=O)O` [valerate], the utilization as substrate result on CsHCS1 [11] is “to a lesser extent”.

Take `O=C(O)/C=C/c1ccccc1` [cinnamate]: on CsHCS2 [2], the utilization as substrate entry is on record as “able to utilize”.

B1: CsHCS1: Cannabis sativa hexanoyl-CoA synthetase 1, alkanoyl-CoA synthetase, SEQ ID NO: 2 (protein, listed as Cannabis sativa)
chain: MGKNYKSLDSVVASDFIALGITSEVAETLHGRLAEIVCNYGAATPQTWINIANHILSPDLPFSLHQMLFYGCYKDFGPAPPAWIPDPEKVKSTNLGALLEKRGKEFLGVKYKDPISSFSHFQEFSVRNPEVYWRTVLMDEMKISFSKDPECILRRDDINNPGGSEWLPGGYLNSAKNCLNVNSNKKLNDTMIVWRDEGNDDLPLNKLTLDQLRKRVWLVGYALEEMGLEKGCAIAIDMPMHVDAVVIYLAIVLAGYVVVSIADSFSAPEISTRLRLSKAKAIFTQDHIIRGKKRIPLYSRVVEAKSPMAIVIPCSGSNIGAELRDGDISWDYFLERAKEFKNCEFTAREQPVDAYTNILFSSGTTGEPKAIPWTQATPLKAAADGWSHLDIRKGDVIVWPTNLGWMMGPWLVYASLLNGASIALYNGSPLVSGFAKFVQDAKVTMLGVVPSIVRSWKSTNCVSGYDWSTIRCFSSSGEASNVDEYLWLMGRANYKPVIEMCGGTEIGGAFSAGSFLQAQSLSSFSSQCMGCTLYILDKNGYPMPKNKPGIGELALGPVMFGASKTLLNGNHHDVYFKGMPTLNGEVLRRHGDIFELTSNGYYHAHGRADDTMNIGGIKISSIEIERVCNEVDDRVFETTAIGVPPLGGGPEQLVIFFVLKDSNDTTIDLNQLRLSFNLGLQKKLNPLFKVTRVVPLSSLPRTATNKIMRRVLRQFSHFE
In the data set with CsHCS1 [6] (enzyme CsHCS1), B1 gave a pH optimum of 9 and a temperature optimum of 40 °C.
